Results: patent US20060052451A1, “Method” (priority 2002, published 2006)

What was measured:
[1] = test system: PC3 cells (human prostate cancer-derived); experiment: SRB growth inhibition assay, PC3 cells; format: cell-based
Method: (§1) The effect of perfluorinated compounds on the inhibition of tumour cell growth was assessed iii vitro using three human tumour-derived cell lines. Cancer cell lines were tested using the sulphorhodamine B (SRB) assay (which measures cellular protein and is directly related to cell number), which is utilised by the […] to screen anti-cancer agents.
(§2) HT-29 cells (human colon tumour-derived), MCF7 cells (human breast cancer-derived) and PC3 cells (human prostate cancer-derived) were harvested and diluted (to 5×10^4 cells per ml, 1×10^5 cells per ml and 7.5×10^4 cells per ml respectively) in RPMI 1640 medium containing 5% FBS, 2 mM glutamine and. 50 μg/ml gentamicin. 100 μl of cell suspension per well was added to 96 well plates and allowed to attach overnight. Cells were exposed to test compounds dissolved in DMSO in 100 μl of medium to give final drug concentrations of 0, 0.3, 1, 3, 10, 30, 100, 300, 1000 and 3000 μM (and DMSO at 0.25%). (n=6 for each drug concentration). After 48 hours, cells were fixed in 10% trichloroacetic acid (TCA) at 4° C. for 1-2 hours then washed using water and subsequently air-dried. 100 μl SRB solution (0.4%) in 1% Acetic Acid was added to each well, and plates were incubated at room temperature for 10 minutes. Unbound dye was removed by washing with 1% acetic acid. Plates were air-dried and bound stain was solubilised in 10 mM Tris base and the absorbance read at 520 nm.

[2] = 7-day oral gavage study, metabolic parameters, body weight and food consumption in CR SD rats; format: in vivo, rat; conditions: for Weight loss: 7 days; for Cholesterol (plasma) / Glucose (plasma) / Insulin (plasma) / Triglycerides (plasma): n=5; for Plasma glucose, % of control values: dose not stated
Method: Two groups (n=5) of CR SD rats (approximately 300 g) were treated with 2 dose levels of perfluorinated compounds (15 and 25 mg/kg/day body weight). Animals were administered test substances, dissolved in corn oil, by oral gavage, daily for 7 days. One group of 20 CR SD rays was also treated with vehicle (corn oil) alone. Body weight and food consumption were monitored daily.
Twenty-four hours after the last dose the animals were killed by an increasing concentration of carbon dioxide. Blood was collected by cardiac puncture and plasma was prepared and stored at −70° C. until analysed.
Plasma was analysed for triglycerides, cholesterol, and glucose, using kits purchased from Sigma. Concentrations of plasma insulin were determined using a commercially available enzyme-immunoassay-based kit from Amersham Biosciences. All assays were carried out as specified by the manufacturer.

[3] = test system: MCF7 cells (human breast cancer-derived); experiment: SRB growth inhibition assay, MCF7 cells; format: cell-based; conditions: 48 hours exposure
Method: as §1, §2

[4] = test system: three human tumour-derived cell lines (HT-29, MCF7, PC3); experiment: SRB growth inhibition, summary over the three human tumour cell lines; format: cell-based; conditions: Homo sapiens; over HT-29, MCF7 and PC3
Method: as §1, §2

[5] = test system: HT-29 cells (human colon tumour-derived); experiment: SRB growth inhibition assay, HT-29 cells; format: cell-based; conditions: 48 hours exposure
Method: as §1, §2

[6] = target: T1, human PPAR-alpha ligand binding domain (Homo sapiens, UniProt Q07869); experiment: PPAR alpha ligand binding (displacement of DAUDA); conditions: for Kd: PPAR Receptor Binding Kd Alpha (apparent Kd), DAUDA displacement
T1 sequence (Q07869 179-468): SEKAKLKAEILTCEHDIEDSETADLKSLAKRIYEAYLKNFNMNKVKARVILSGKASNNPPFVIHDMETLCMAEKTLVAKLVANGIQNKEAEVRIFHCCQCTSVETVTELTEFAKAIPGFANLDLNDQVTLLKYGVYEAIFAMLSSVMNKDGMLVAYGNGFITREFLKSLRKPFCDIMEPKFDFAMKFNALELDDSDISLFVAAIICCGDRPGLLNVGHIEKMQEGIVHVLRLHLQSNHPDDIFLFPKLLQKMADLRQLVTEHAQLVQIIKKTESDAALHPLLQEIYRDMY

[7] = Plasma levels of PFOA after 11 days oral dosing in SD rats (LC/MS/MS); format: in vivo, rat; conditions: 25 mg/kg oral daily for 11 days, 24 hours after final administration
Method: The study consisted of one control group of 8 male CD Sprague Dawley rats (8-10-weeks old; obtained from Harlan, UK) and 4 test groups that contained 4 rats. Animals received powdered RM1 diet ad libitum for the duration of the study. […] All chemicals were dissolved in Mazola corn oil (at 2.5 mg/ml) and test compounds were administered at 10 ml/kg bodyweight. Control animal received Mazola corn oil only. All animals were sacrificed after 11 days. Animals were killed by exposure to rising concentrations of CO2, and blood was harvested into lithium/heparin tubes for plasma.
Rat plasma samples were denatured by adding acetonitrile, and the amount of perfluorooctanoic acid (PFOA) present was determined by LC/MS/MS.

[8] = target: T2, PPAR delta (Homo sapiens, UniProt Q03181); experiment: PPAR delta transactivation assay in COS-1 cells; format: cell-based; set-up: Fold activation of PPAR delta: dose or concentration left out as unconfirmed; conditions: for Inhibition of activation of PPAR delta (by a factor of): transactivation assay; for Fold activation of PPAR delta: mean±SD n=3
T2 construct: 25 ng of vector DNA carrying PPAR alpha, delta or gamma; expressed in transfected cells; host or cells: COS-1 (African green monkey kidney cells)
T2 sequence (Q03181 1-441): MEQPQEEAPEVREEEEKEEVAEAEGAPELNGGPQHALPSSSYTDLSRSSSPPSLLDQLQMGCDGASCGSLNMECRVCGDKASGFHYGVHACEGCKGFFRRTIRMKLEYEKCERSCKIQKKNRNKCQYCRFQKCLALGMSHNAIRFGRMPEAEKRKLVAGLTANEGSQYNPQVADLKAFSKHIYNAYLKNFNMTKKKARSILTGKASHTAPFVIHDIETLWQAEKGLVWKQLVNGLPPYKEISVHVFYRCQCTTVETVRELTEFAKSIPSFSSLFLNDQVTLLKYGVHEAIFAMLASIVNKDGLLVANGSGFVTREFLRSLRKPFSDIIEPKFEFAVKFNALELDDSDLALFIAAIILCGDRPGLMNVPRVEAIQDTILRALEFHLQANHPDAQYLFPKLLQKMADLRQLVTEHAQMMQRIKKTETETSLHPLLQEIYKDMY

[9] = target: T3, human PPAR-gamma ligand binding domain (Homo sapiens, UniProt P37231); experiment: PPAR gamma ligand binding (displacement of cis-parinaric acid)
T3 sequence (P37231 202-505): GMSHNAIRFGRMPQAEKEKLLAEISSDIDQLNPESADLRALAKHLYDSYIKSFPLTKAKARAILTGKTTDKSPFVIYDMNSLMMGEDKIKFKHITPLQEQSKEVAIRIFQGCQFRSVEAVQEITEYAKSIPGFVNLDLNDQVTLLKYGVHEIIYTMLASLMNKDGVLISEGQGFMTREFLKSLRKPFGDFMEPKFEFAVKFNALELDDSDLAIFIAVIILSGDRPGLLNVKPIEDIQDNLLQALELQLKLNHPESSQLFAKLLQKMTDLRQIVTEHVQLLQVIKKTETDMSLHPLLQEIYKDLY

[10] = Homo sapiens, PC-3, 48 hours exposure
[11] = 15 mg/kg/day oral gavage 7 days
[12] = 25 mg/kg/day oral gavage 7 days
[13] = 15 and 25 mg/kg/day, versus control

| Compound | IC50 [1, 10] [µM] | Plasma insulin, % of control values ([2]; 15 mg/kg) [%] | Weight loss ([2]; 15 mg/kg) [%] | Cholesterol (plasma) [2, 11] [mmol/L] | Glucose (plasma) [2, 11] [mmol/L] | Insulin (plasma) [2, 11] [ng/mL] | Triglycerides (plasma) [2, 11] [mmol/L] | Plasma cholesterol, % of control values ([2]; 25 mg/kg) [%] | Plasma insulin, % of control values ([2]; 25 mg/kg) [%] | Plasma triglycerides, % of control values ([2]; 25 mg/kg) [%] | Glucose (plasma) [2, 12] [mmol/L] | Insulin (plasma) [2, 12] [ng/mL] | Triglycerides (plasma) [2, 12] [mmol/L] | Food consumption [2, 13] | Plasma glucose, % of control values [2] [%] | IC50 ([3]; Homo sapiens, MCF7, 48 h) [µM] | IC50 [4] [µM] | IC50 ([5]; Homo sapiens, HT-29, 48 h) [µM] | Kd [6] [µM] | Cholesterol (plasma) [2, 12] [mmol/L] | also measured |
| --- | --- | --- | --- | --- | --- | --- | --- | --- | --- | --- | --- | --- | --- | --- | --- | --- | --- | --- | --- | --- | --- |
| N.O=C(O)C(F)(F)C(F)(F)C(F)(F)C(F)(F)C(F)(F)C(F)(F)C(F)(F)F [APFO, Ammonium perfluorooctanoate] | 215 | 13.5 | 1 | 1.00 ± 0.36 | 13.12 ± 0.74 | 25.02 ± 20.27 | 0.25 ± 0.07 | 56.2 | 8.3 | 19.1 | 11.99 ± 1.87 | 15.29 ± 9.72 | 0.34 ± 0.09 | dose-related, decreases in food consumption | 72.6 | 211 | 200 to 600 | 293 | 8 |  | Food consumption ([2]; 15 mg/kg): did not decrease further after day 6; Weight loss ([2]; 25 mg/kg (higher dose)): 11%; Bodyweight change ([2]; 15 and 25 mg/kg/day, continued till end of treatment): lost bodyweight after day 3 |
| CCOC(=O)C(F)(F)C(F)(F)C(F)(F)C(F)(F)C(F)(F)C(F)(F)C(F)(F)F [EPOA, Ethylperfluorooctanoate] |  |  |  |  |  |  |  |  |  |  |  |  |  |  |  |  |  |  |  |  | Plasma concentration of PFOA (free acid) [7]: equimolar concentrations of PFOA |
| FC(F)(F)C(F)(F)C(F)(F)C(F)(F)C(F)(F)C(F)(F)C(F)(F)C(F)(F)F [PFO, Perfluorooctane] |  |  |  | 1.99 ± 0.46 | 18.41 ± 1.41 | 99.58 ± 126.1 | 1.03 ± 0.35 |  | 33.5 |  | 17.13 ± 2.37 | 61.81 ± 45.81 | 2.09 ± 2.33 |  |  |  |  |  |  | 1.70 ± 0.11 | Plasma glucose raised by ([2]; 25 mg/kg): 3% |
| O=C(O)C(F)(F)C(F)(F)C(F)(F)C(F)(F)C(F)(F)C(F)(F)C(F)(F)F [PFOA, Perfluorooctanoic acid] |  | 2.98 | 9.4 | 1.01 ± 0.086 | 10.30 ± 1.23 | 5.51 ± 8.88 | 0.37 ± 0.04 | 49.2 | 30.74 | 16.8 | 10.01 ± 3.90 | 56.76 ± 46.5 | 0.3 ± 0.13 | dose-related, decreases in food consumption | 60 |  |  |  | 6 | 0.98 ± 0.35 | IC50 ([1]; 48 hours exposure): 215 µM; Bodyweight lost ([2]; 25 mg/kg, after day 6, terminated early): 11.7%; IC50 [3]: 244 µM; IC50 [5]: 398 µM; Inhibition of activation of PPAR delta (by a factor of) [8]: 4 |
| O=C(O)C(F)(F)C(F)(F)C(F)(F)C(F)(F)C(F)(F)C(F)(F)C(=O)O [PFSA, Perfluorosuberic acid (C8)] | > 3000 | 28.7 |  | 1.76 ± 0.15 | 16.41 ± 2.09 | 52.96 ± 26.55 | 0.95 ± 0.42 |  |  |  | 15.9 ± 1.43 | 109 ± 103.2 | 1.22 ± 0.56 |  |  | > 3000 | ~3000 | > 3000 | 44 | 1.92 ± 0.36 | Kd [9]: 13 µM; Reduction in binding affinity for PPAR gamma compared to PFOA [9]: ~40 fold; Fold activation of PPAR delta [8]: 0.62 ± 0.31 fold; Inhibition of activation of PPAR delta (by a factor of) [8]: 1.6; Reduction in binding affinity for PPAR alpha compared to PFOA [6]: 7 fold |
| CCCCC[C@H](O)/C=C/[C@@H]1[C@H]2C/C(=C/CCCC(=O)O)C[C@H]2C[C@H]1O [carbaprostacyclin, reference compound] |  |  |  |  |  |  |  |  |  |  |  |  |  |  |  |  |  |  |  |  | Fold activation of PPAR delta [8]: 2.17 ± 0.42 fold |
